ChEMBL document CHEMBL4321872, “Engineering a Potent, Long-Acting, and Periphery-Restricted Oxytocin Receptor Agonist with Anorexigenic and Body Weight Reducing Effects” (J Med Chem, 2020)
Activity calls are given as the source filed them. The rule behind the calls is not given here. Numbered stars: 1 amine (or outer) side, 2 acyl side, 3 side chain; on linkers, the order of the positions; unused ones are H or OH. Bridge positions count the residues as written; N and C are the ends. Square brackets hold non-standard residues; d marks the D form. Peptide text beside a SMILES is read from it. * marks the point of attachment. X4 = O=C(O)CCCCCCCCCCCCCCCCC(=O)NCCOCCOCCOCCNC(=O)C*; X3 = CCCCCCCCCCCCCC(=O)NCCOCCOCCNC(=O)C*; X2 = O=C(CCC[*:2])[*:1]; Sar = CNCC(=O)O; Cam = NC(=O)C*

Legend:
[1] = target: T1, Oxytocin receptor (Homo sapiens, UniProt P30559); assay: Agonist activity at recombinant human Gi/Go-coupled OTR expressed in CHOK1 cells assessed as induction of beta-arrestin recruitment measured after 90 mins in presence of 10% FBS by pathhunter assay; type: cell-based
T1 sequence (P30559 whole entry): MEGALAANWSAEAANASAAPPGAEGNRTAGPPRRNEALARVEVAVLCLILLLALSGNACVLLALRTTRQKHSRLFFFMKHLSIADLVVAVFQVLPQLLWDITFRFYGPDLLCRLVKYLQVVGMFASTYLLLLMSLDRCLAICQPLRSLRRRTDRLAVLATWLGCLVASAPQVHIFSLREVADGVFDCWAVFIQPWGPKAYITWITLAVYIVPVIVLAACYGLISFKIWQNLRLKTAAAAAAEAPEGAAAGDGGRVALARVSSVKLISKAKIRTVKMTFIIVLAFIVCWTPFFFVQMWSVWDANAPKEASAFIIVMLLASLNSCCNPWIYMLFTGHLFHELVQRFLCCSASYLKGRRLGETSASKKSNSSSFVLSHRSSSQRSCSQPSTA

[2] = target: T1, Oxytocin receptor; assay: Agonist activity at recombinant human Gi/Go-coupled OTR expressed in CHOK1 cells assessed as induction of beta-arrestin recruitment measured after 90 mins in absence of 10% FBS by pathhunter assay; type: cell-based
[3] = target: T2, Oxytocin receptor (Homo sapiens) (UniProt P30559); assay: Agonist activity at recombinant human Gi/Go-coupled OTR expressed in CHOK1 cells assessed as induction of beta-arrestin recruitment measured after 90 mins in absence of 10% FBS by pathhunter assay relative to oxytocin; type: cell-based
T2 sequence (whole entry): T1 sequence (P30559 whole entry)

[4] = target: T2, Oxytocin receptor (Homo sapiens); assay: Ratio of EC50 for agonist activity at recombinant human Gi/Go-coupled OTR expressed in CHOK1 cells in presence of 10% FBS to EC50 for agonist activity at recombinant human Gi/Go-coupled OTR expressed in CHOK1 cells in absence of 10% FBS; type: cell-based
[5] = Aqueous solubility of the compound; type: physicochemical; settings: buffer
[6] = target: T2, Oxytocin receptor (Homo sapiens); assay: Agonist activity at recombinant human Gi/Go-coupled OTR expressed in CHOK1 cells assessed as induction of beta-arrestin recruitment measured after 90 mins in presence of 10% FBS by pathhunter assay relative to oxytocin; type: cell-based
[7] = test system: Mus musculus; assay: Anorexigenic activity in C57BL/6J mouse assessed as reduction in food intake at 0.5 mg/kg, sc measured at 3 hrs interval for 6 hrs; type: functional, organism-based
[8] = test system: Mus musculus; assay: Anorexigenic activity in C57BL/6J mouse assessed as reduction in food intake at 0.5 mg/kg, sc measured at 24 hrs post-dose; type: functional, organism-based
[9] = test system: Mus musculus; assay: Anorexigenic activity in C57BL/6J mouse assessed as reduction in body weight at 0.5 mg/kg, sc measured daily for 2 days; type: functional, organism-based
[10] = test system: Mus musculus; assay: Anorexigenic activity in C57BL/6J mouse […] model assessed as reduction in food intake at 0.1 mg/kg, sc administered once daily for 9 days and measured daily during compound dosing; type: functional, organism-based
[11] = test system: Mus musculus; assay: Anorexigenic activity in C57BL/6J mouse […] model assessed as reduction in body weight at 0.1 mg/kg, sc administered once daily for 9 days and measured daily during compound dosing; type: functional, organism-based
[12] = Half life in C57BL/6J mouse; type: ADME; settings: in vivo

| Compound | EC50 [1] | EC50 [2] | %max [3] | Ratio EC50 [4] | other results |
| --- | --- | --- | --- | --- | --- |
| CCCCCCCCCCCCCC(=O)NCCOCCOCCNC(=O)CSC[C@H](NC(=O)CNC(=O)[C@@H]1CSCCCC(=O)N[C@@H](Cc2ccc(O)cc2)C(=O)N[C@@H]([C@@H](C)CC)C(=O)N[C@@H](CCC(N)=O)C(=O)N[C@@H](CC(N)=O)C(=O)N1)C(=O)NCC(N)=O (YIQNCGC(X3)G-NH2; linker N-5 via X2) | 18.9 nM | 5.27 nM | 116% | 3.6 | solubility [5]: Soluble |
| CCCCCCCCCCCCCC(=O)NCCOCCOCCNC(=O)CSC[C@H](NC(=O)CNC(=O)[C@@H]1CSCCCC(=O)N[C@@H](Cc2ccc(O)cc2)C(=O)N[C@@H]([C@@H](C)CC)C(=O)N[C@@H](CCC(N)=O)C(=O)N[C@@H](CC(N)=O)C(=O)N1)C(=O)N(C)CC(N)=O (YIQNCGC(X3)[Sar]-NH2; linker N-5 via X2) | 56.9 nM | 10.5 nM | 57% | 5.4 |  |
| CC[C@H](C)[C@@H]1NC(=O)[C@H](Cc2ccc(O)cc2)NC(=O)CCCSC[C@@H](C(=O)NCC(=O)N[C@@H](CSCC(=O)NCCOCCOCCOCCNC(=O)CCCCCCCCCCCCCCCCC(=O)O)C(=O)NCC(N)=O)NC(=O)[C@H](CC(N)=O)NC(=O)[C@H](CCC(N)=O)NC1=O (YIQNCGC(X4)G-NH2; linker N-5 via X2) | 173 nM | 3.41 nM | 117% | 50.9 | solubility [5]: Soluble |
| CC[C@H](C)[C@@H]1NC(=O)[C@H](Cc2ccc(O)cc2)NC(=O)CCCSC[C@@H](C(=O)NCC(=O)N[C@@H](CSCC(=O)NCCOCCOCCOCCNC(=O)CCCCCCCCCCCCCCCCC(=O)O)C(=O)N(C)CC(N)=O)NC(=O)[C@H](CC(N)=O)NC(=O)[C@H](CCC(N)=O)NC1=O (YIQNCGC(X4)[Sar]-NH2; linker N-5 via X2) | 831 nM | 52.4 nM | 34% | 15.9 |  |
| CC[C@H](C)[C@@H]1NC(=O)[C@H](Cc2ccc(O)cc2)NC(=O)CCCSC[C@@H](C(=O)N2CCC[C@H]2C(=O)N[C@@H](CSCC(N)=O)C(=O)NCC(N)=O)NC(=O)[C@H](CC(N)=O)NC(=O)[C@H](CCC(N)=O)NC1=O (YIQNCPC(Cam)G-NH2; linker N-5 via X2) | 4.8 nM |  |  |  | %max [6]: 97% |
| CCCCCCCCCCCCCC(=O)NCCOCCOCCNC(=O)CSC[C@H](NC(=O)[C@@H]1CCCN1C(=O)[C@@H]1CSCCCC(=O)N[C@@H](Cc2ccc(O)cc2)C(=O)N[C@@H]([C@@H](C)CC)C(=O)N[C@@H](CCC(N)=O)C(=O)N[C@@H](CC(N)=O)C(=O)N1)C(=O)NCC(N)=O (YIQNCPC(X3)G-NH2; linker N-5 via X2) | 5.28 nM |  |  |  | %max [6]: 70% |
| CC[C@H](C)[C@@H]1NC(=O)[C@H](Cc2ccc(OC)cc2)NC(=O)CCCSC[C@@H](C(=O)N2CCC[C@H]2C(=O)N[C@@H](CC(C)C)C(=O)NCC(N)=O)NC(=O)[C@H](CC(N)=O)NC(=O)[C@H](CCC(N)=O)NC1=O [CARBETOCIN] (Y(Me)IQNCPLG-NH2; linker N-5 via X2) |  |  |  |  | Activity [7]: Active; Activity [8]: inactive; Activity [9]: inactive; Activity [10]: Active; Activity [11]: Active; half-life [12]: 40 min |
| CC[C@H](C)[C@@H]1NC(=O)[C@H](Cc2ccc(O)cc2)NC(=O)[C@@H](N)CSSC[C@@H](C(=O)N2CCC[C@H]2C(=O)N[C@@H](CC(C)C)C(=O)NCC(N)=O)NC(=O)[C@H](CC(N)=O)NC(=O)[C@H](CCC(N)=O)NC1=O [OXYTOCIN] |  |  |  |  | half-life [12]: 2 to 3 min |
